Assay results as given in patent EP0863156A1, “Peptides useful as somatostatin antagonists” (American Cyanamid Company, priority 1997, dated 1998).
Square brackets hold non-standard residues; d marks the D form. Peptide text beside a SMILES is read from it.

How the values were obtained:
[1] = system: serum growth hormone (GH) levels; assay: In vivo serum growth hormone levels in anaesthetized rats (radioimmunoassay); parameters: species or system Male Sprague-Dawley rats; details: for SGH: i.v., BIM 23014C 10 µg at 60 min
Description: (§1) Evaluation in anaesthetized rats. Male Sprague-Dawley rats are anaesthetized with Sagatal and fitted so as to allow efficient intravenous treatment with control and test compounds as well as frequent blood sampling. Blood samples are tested for growth hormone (GH) levels by radioimmunoassay. Thirty minutes after the initiation of blood sampling, rats are given 5 µg, 25 µg or 50 µg of peptide 1.
(§2) Peptide 1 is tested in combination with growth hormone releasing factor (GRF), to investigate whether said peptide may be mimicking the action of GRF. Anaesthetized rats are given GRF (1 µg) alone and in combination with peptide 1 (50 µg). […]

Male Sprague-Dawley rats = assay: Serum growth hormone levels in anaesthetized rats after intravenous treatment (radioimmunoassay); assay type: in vivo; details: for SGH: GRF 1 µg + Peptide 1 50 µg at 30 min
Description: as §1, §2

SSTR2 [2] = target: T1, SSTR2 (Rattus norvegicus, UniProt P30680); assay: Competitive binding of 125I labeled S-14 to membranes of cells expressing transfected SSTR2 (SPA); parameters: expressed in transfected cells
T1 sequence (P30680 whole entry): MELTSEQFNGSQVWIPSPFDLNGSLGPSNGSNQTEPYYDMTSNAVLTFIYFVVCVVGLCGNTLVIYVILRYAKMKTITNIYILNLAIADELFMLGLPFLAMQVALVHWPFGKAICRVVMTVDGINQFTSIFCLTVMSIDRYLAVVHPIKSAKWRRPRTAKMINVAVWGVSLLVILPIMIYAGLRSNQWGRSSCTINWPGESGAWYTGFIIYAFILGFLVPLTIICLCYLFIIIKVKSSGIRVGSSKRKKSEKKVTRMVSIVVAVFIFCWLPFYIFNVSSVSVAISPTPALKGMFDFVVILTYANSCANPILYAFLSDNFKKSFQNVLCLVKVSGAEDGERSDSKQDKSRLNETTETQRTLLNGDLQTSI
Description: Membrane preparation. Tissue culture cell lines expressing transfected cDNA clones of SSTR2 and SSTR5 are used as a source of plasma membranes which specifically bind ^125I labeled S-14 (Amersham, Arlington Heights, IL). Cells are removed from culture dishes by incubation at 4°C for 5 minutes in PBS containing 1 mM EDTA, spun down (2,000 rpm, 5') and resuspended in 15 mL homogenization buffer (1 mM sodium bicarbonate pH 7.2, 1 mM EDTA, 1 mM EGTA and the following protease inhibitors: leupeptin and aprotenin at 5 µg/mL and benzamidine and bacitracin at 100 µg/mL). Cells are given 20 strokes with a Dounce homogenizer on ice and spun at 2000 rpm for 10 minutes. Membranes are isolated from the supernatant by centrifugation at 17,000 rpm for 30 minutes. The membrane pellet is washed once in 15 mL homogenization buffer and once in storage buffer (25 mM Tris pH 7.4 containing protease inhibitors). […] The membrane pellet is resuspended in storage buffer, measured for protein concentration (BioRad, CA) and stored at -80°C.
Binding assay. […] Bound radioligand is determined by counting in a Microbeta Liquid Scintillation counter (Wallac, Gaithersburg, MD). Binding data is plotted and IC50 and Ki values are calculated for test compounds using Prism software (Graphpad Software Inc., San Diego, CA) and are shown in Table V. Binding is expressed as Ki, µM.

SSTR2 [3] = target: T1, SSTR2; assay: cAMP accumulation in forskolin-stimulated GH4C1/SSTR2 cells (SPA radioimmunoassay); assay type: cell-based; parameters: expressed in transfected cells; host or cells: GH4C1 rat pituitary tumor cells
Description: This is the basis of a common assay for SRIF agonists and antagonists, whereby SRIF agonists reduce artificially stimulated cAMP levels, and SRIF antagonists reverse the effect of SRIF. […] This increases the response to SRIF and provides a greater dynamic range for the measurement of SRIF antagonist activity.
Stimulation of cells. GH4C1/SSTR2 cells, grown in DMEM with 10% bovine serum, are released from a tissue culture dish by incubation for several minutes at 37° C with PBS containing 0.5 mM EDTA. Cells are washed in induction buffer (PBS containing 100 µM IBMX (an inhibitor of cAMP breakdown) and 2 mM CaCl2) at room temperature, and resuspended at 2 x 10^6/mL in induction buffer. Into each well of a 96-well tray are added 50 µL of a 2 X concentration of stimulants in induction buffer. […] To initiate stimulation of the cells, 50 µL (100,000) cells are added to each well, mixed by shaking 10 seconds on a plate shaker and placed at 37° C for 15 minutes. Stimulation is arrested and cells are lysed by adding 15 µL 0.33 N HCI to each well and incubating the plate for 30 minutes at 37° C. Samples are neutralized by addition of 15 µL 0.25 N NaOH/50 mM Hepes pH 7.4. Baseline cAMP levels are determined in samples with no added forskolin or SRIF, and each treatment is performed in triplicate.
cAMP assay. To measure accumulated cAMP in the samples, a radioimmunoassay is employed. The scintillation proximity assay (SPA, Amersham, Arlington Heights, IL) allows the rapid measurement of ^125I cAMP bound to a specific antibody without separating bound radioligand from free radioligand. Each of the following reagents (15 µL) are added per well in a 96-well tray: supernatants from the cell stimulation; ^125I cAMP; SPA beads conjugated to monkey anti-rabbit IgG antibodies; and rabbit anti-cAMP antibodies. For the standard curve, known amounts of cAMP (0.2 - 12.8 pmol) are added in place of cell supernatants. The 96-well tray is sealed, shaken at room temperature overnight and measured for bound radioligand in a MicroBeta liquid scintillation counter (Wallac, Gaithersburg. MD).
The intrinsic activity of an SRIF antagonist is the percent reversal of the SSTR2 activation by SRIF or MK678, wherein 0% is defined by cAMP levels in samples treated with forskolin plus SRIF or MK678 and 100% is the cAMP level measured after treatment with forskolin alone. Therefore, increased intrinsic activity of a test compound indicates increased antagonist activity of said test compound.
An inverse agonist is a compound that is not only a pure antagonist (i.e. lacking agonist activity), but also blocks the constitutive activity of an unoccupied receptor. One indication of inverse agonist activity is the ability of a SRIF antagonist to increase cAMP levels in the absence of added SRIF.

Ki (SSTR2 [2]): 140 nM | cAMP (SSTR2 [3]; Forskolin 1.25 µM + MK 678 10 nM + Peptide 1 1 µM (forskolin + MK 678 alone 0.91)): 1.14 pM per 4 x 10^4 cells | cAMP (SSTR2 [3]; Forskolin 1.25 µM + MK 678 10 nM + Peptide 1 10 µM (forskolin + MK 678 alone 0.91)): 2.69 pM per 4 x 10^4 cells | cAMP (SSTR2 [3]; Forskolin 1.25 µM + MK 678 10 nM + Peptide 1 50 µM (forskolin + MK 678 alone 0.91)): 3.32 pM per 4 x 10^4 cells | cAMP (SSTR2 [3]; Forskolin 1.25 µM, no MK 678, Peptide 1 1 µM (forskolin alone 3.04; baseline 0.36)): 2.57 pM per 4 x 10^4 cells | cAMP (SSTR2 [3]; Forskolin 1.25 µM, no MK 678, Peptide 1 10 µM (forskolin alone 3.04; baseline 0.36)): 3.05 pM per 4 x 10^4 cells | cAMP (SSTR2 [3]; Forskolin 1.25 µM, no MK 678, Peptide 1 50 µM (forskolin alone 3.04; baseline 0.36)): 3.33 pM per 4 x 10^4 cells | Emax at 2 µM (SSTR2 [3]; GH4-C1, test peptide 2 µM, percent reversal of SSTR2 activation by SRIF or MK678, 0% = forskolin plus agonist, 100% = forskolin alone, read-out: cAMP Assay Intrinsic activity): 85.2%
Compound: CC[C@@H](C)[C@@H](NC(=O)[C@@H](Cc1ccccc1)NC(=O)[C@@H](Cc1c[nH]cn1)NC(C)=O)C(=O)N[C@H](CCCNC(=N)N)C(=O)N[C@H](Cc1c[nH]c2ccccc12)C(=O)N[C@H](Cc1ccccc1)C(N)=O [Peptide 1, Ac-D-His-D-Phe-D-Ile-D-Arg-D-Trp-D-Phe-NH2] (Ac-[dH][dF][dI][dR][dW][dF]-NH2)
effect upon GH levels ([1]; 5 µg, 25 µg or 50 µg of peptide 1 thirty minutes after initiation of blood sampling): dose related effect upon GH levels | serum GH levels after first dose ([1]; highest dose (50 µg) of peptide 1 at 30 min): significant increase in serum GH levels | SGH ([1]; Peptide 1 5 µg at 30 and 90 min, time 0 min (before dosing)): 17.0 ng/mL | SGH ([1]; Peptide 1 5 µg at 30 and 90 min, time 15 min (before dosing)): 13.6 ng/mL | SGH ([1]; Peptide 1 5 µg at 30 and 90 min, time 30 min (time of first dose)): 12.2 ng/mL | SGH ([1]; Peptide 1 5 µg at 30 and 90 min, time 35 min): 17.5 ng/mL | SGH ([1]; Peptide 1 5 µg at 30 and 90 min, time 40 min): 14.9 ng/mL | SGH ([1]; Peptide 1 5 µg at 30 and 90 min, time 45 min): 15.7 ng/mL | SGH ([1]; Peptide 1 5 µg at 30 and 90 min, time 60 min (time of BIM dose)): 11.4 ng/mL | SGH ([1]; Peptide 1 5 µg at 30 and 90 min, time 75 min): 7.0 ng/mL | SGH ([1]; Peptide 1 5 µg at 30 and 90 min, time 90 min (time of second dose)): 2.4 ng/mL | SGH ([1]; Peptide 1 5 µg at 30 and 90 min, time 95 min): 3.1 ng/mL | SGH ([1]; Peptide 1 5 µg at 30 and 90 min, time 100 min): 1.7 ng/mL | SGH ([1]; Peptide 1 5 µg at 30 and 90 min, time 105 min): 1.7 ng/mL | SGH ([1]; Peptide 1 5 µg at 30 and 90 min, time 135 min): 1.1 ng/mL | SGH ([1]; Peptide 1 25 µg at 30 and 90 min, time 0 min (before dosing)): 19.2 ng/mL | SGH ([1]; Peptide 1 25 µg at 30 and 90 min, time 15 min (before dosing)): 17.3 ng/mL | SGH ([1]; Peptide 1 25 µg at 30 and 90 min, time 30 min (time of first dose)): 16.6 ng/mL | SGH ([1]; Peptide 1 25 µg at 30 and 90 min, time 35 min): 18.4 ng/mL | SGH ([1]; Peptide 1 25 µg at 30 and 90 min, time 40 min): 17.5 ng/mL | SGH ([1]; Peptide 1 25 µg at 30 and 90 min, time 45 min): 14.0 ng/mL | SGH ([1]; Peptide 1 25 µg at 30 and 90 min, time 60 min (time of BIM dose)): 13.1 ng/mL | SGH ([1]; Peptide 1 25 µg at 30 and 90 min, time 75 min): 6.8 ng/mL | SGH ([1]; Peptide 1 25 µg at 30 and 90 min, time 90 min (time of second dose)): 5.1 ng/mL | SGH ([1]; Peptide 1 25 µg at 30 and 90 min, time 95 min): 11.4 ng/mL | SGH ([1]; Peptide 1 25 µg at 30 and 90 min, time 100 min): 10.5 ng/mL | SGH ([1]; Peptide 1 25 µg at 30 and 90 min, time 105 min): 7.9 ng/mL | SGH ([1]; Peptide 1 25 µg at 30 and 90 min, time 135 min): 5.2 ng/mL | SGH ([1]; Peptide 1 50 µg at 30 and 90 min, time 0 min (before dosing)): 22.7 ng/mL | SGH ([1]; Peptide 1 50 µg at 30 and 90 min, time 15 min (before dosing)): 17.0 ng/mL | SGH ([1]; Peptide 1 50 µg at 30 and 90 min, time 30 min (time of first dose)): 19.7 ng/mL | SGH ([1]; Peptide 1 50 µg at 30 and 90 min, time 35 min): 50.2 ng/mL | SGH ([1]; Peptide 1 50 µg at 30 and 90 min, time 40 min): 23.4 ng/mL | SGH ([1]; Peptide 1 50 µg at 30 and 90 min, time 45 min): 15.5 ng/mL | SGH ([1]; Peptide 1 50 µg at 30 and 90 min, time 60 min (time of BIM dose)): 17.1 ng/mL | SGH ([1]; Peptide 1 50 µg at 30 and 90 min, time 75 min): 3.5 ng/mL | SGH ([1]; Peptide 1 50 µg at 30 and 90 min, time 90 min (time of second dose)): 1.9 ng/mL | SGH ([1]; Peptide 1 50 µg at 30 and 90 min, time 95 min): 67.3 ng/mL | SGH ([1]; Peptide 1 50 µg at 30 and 90 min, time 100 min): 31.8 ng/mL | SGH ([1]; Peptide 1 50 µg at 30 and 90 min, time 105 min): 10.5 ng/mL | SGH ([1]; Peptide 1 50 µg at 30 and 90 min, time 135 min): 2.6 ng/mL | serum GH levels after second dose ([1]; second dose of peptide 1, highest dose (50 µg), after BIM 23014C): even greater increase in serum GH levels | SGH (Male Sprague-Dawley rats; time 35 min): 195.8 ng/mL | SGH (Male Sprague-Dawley rats; time 40 min): 176.2 ng/mL | SGH (Male Sprague-Dawley rats; time 45 min): 40.5 ng/mL | GH levels (Male Sprague-Dawley rats; GRF (1 µg) in combination with peptide 1 (50 µg), compared with GRF alone): rise faster and higher than with GRF alone | forskolin-stimulated cAMP levels in the absence of SRIF (inverse agonist activity) (SSTR2 [3]; GH4C1/SSTR2 cells, no added SRIF, Figure 1 (Table II) and Figure 2 (Table IV)): causes an increase in forskolin-stimulated cAMP levels even in the absence of SRIF | parallelism of the dose response curves of S-14 or MK678 with and without peptide 1 (SSTR2 [3]; forskolin stimulated cells, increasing doses of S-14 or MK678, Figure 2 (Table IV)): directly competing with the SRIF agonists
